This note sets out measurements from US4133826A, “Novel inversion process” (Roussel UCLAF, priority 1976, dated 1979).

Structures are written as SMILES.

The test system of test [1] is Spodoptera Littoralis larvae. Kind of test: Activity against Spodoptera Littoralis larvae (topical application). Particulars: for % dead after 24 h / % dead after 48 h: 1 μl acetone solution. The class given is in vivo. On the procedure:
B. Activity against Spodoptera Littoralis larvae
This test was effected by topical application of 1 μl of an acetone solution of product A on the dorsal thorax of each larva and for each test, 15 caterpillers of Spodoptera Littoralis in the 4th larva stage were used. After treatment, the individuals were placed in an artificial nutritive media (Poitot medium) and the number of dead caterpillers was determined 24 and 48 hours after the treatment to determine the LD50 dose.

The test system of test [2] is domestic flies (houseflies). Briefly: Activity against houseflies (topical application). The class given is in vivo, domestic flies of mixed sexes. Particulars: for % dead after 24 hours: 1 μl acetone solution, dorsal thorax. As to the method:
A. Activity against houseflies
The insecticidal tests were effected on domestic flies of mixed sexes by applying a topical solution of 1 μl of acetone solution of (S) α-cyano-3-phenoxybenzyl 2,2-dimethyl-3R-(2,2-dichlorovinyl)-cyclopropane-1R-carboxylate (product A) to the dorsal thorax of the flies. 50 flies were used for each test and the results were determined as the LD50, dose at which 50% of the flies were dead 24 hours after treatment.

The next test relates to insects. Briefly: Insecticidal activity (general statement). The class given is in vivo. Particulars: in words.

As to `CC1(C)[C@H](C(=O)O[C@H](C#N)c2cccc(Oc3ccccc3)c2)[C@@H]1C=C(Cl)Cl` [product A, (S) α-cyano-3-phenoxybenzyl 2,2-dimethyl-3R-(2,2-dichlorovinyl)-cyclopropane-1R-carboxylate], the “% dead after 24 h” value came to 20.5% in test [1] (dose 0.1562 ng, topical, dorsal thorax, 4th larva stage); 48.9% in test [1] (dose 0.3125 ng, topical, dorsal thorax, 4th larva stage); 80.0% in test [1] (dose 0.625 ng, topical, dorsal thorax, 4th larva stage); 95.6% in test [1] (dose 1.25 ng, topical, dorsal thorax, 4th larva stage). The “% dead after 48 h” value was 27.3% in test [1] (dose 0.1562 ng, topical, dorsal thorax, 4th larva stage, 48 h); 62.2% in test [1] (dose 0.3125 ng, topical, dorsal thorax, 4th larva stage, 48 h); 82.2% in test [1] (dose 0.625 ng, topical, dorsal thorax, 4th larva stage, 48 h); 97.8% in test [1] (dose 1.25 ng, topical, dorsal thorax, 4th larva stage, 48 h). Further, the “effective against larvae of Spodoptera Littoralis” value in test [1] (in words, experimental tests) is “effective”. For the same molecule, the “LD50 at 48 h” value in test [1] (topical, dorsal thorax, 4th larva stage, 48 h) is recorded as 0.3 ng. Further, the “% dead after 24 hours” value turned out to be 10.0% in test [2] (dose 0.625 ng, topical); 34.5% in test [2] (dose 1.25 ng, topical); 68.0% in test [2] (dose 2.5 ng, topical); 83.2% in test [2] (dose 3.75 ng, topical); 93.3% in test [2] (dose 5 ng, topical). The LD50 in test [2] (dose at which 50% of the flies were dead 24 hours after treatment, topical) was 1.6 ng. The “effective against domestic flies” value in test [2] (in words, experimental tests) was “effective against domestic flies”. Also, the “insecticidal activity against houseflies” value in test [2] (in words, from Table I) is given as “very high insecticidal activity”. Also, the insecticidal activity entry in the test on insects is on record as “excellent insecticidal activity”.
